According to paper PMC12657942, “Measurement and modeling of rizatriptan in supercritical CO2 for pharmaceutical processing” (Scientific Reports, 2025):

Experiments:
[1] = design: method as in PMID 36559181, doi:10.1007/s40005-015-0206-z, PMID 20582194, PMID 10551439; settings: conventional oral tablets; cited from earlier work
[2] = Solubility of rizatriptan in supercritical CO2, static gravimetric method; type: physicochemical
Experimental: A specialized high-pressure system is employed to measure the solubility of rizatriptan using gravimetric techniques in a supercritical CO2[6]. A 200 mL vessel capable of withstanding pressures up to 35 MPa and temperatures up to 423 K is prepared with leak-free seals, valves, and fittings. All valves and connectors were 1/8 inch in size. The system’s pressure and temperature sensors are calibrated for accuracy. Next, 2000 mg of rizatriptan powder is weighed precisely using an analytical balance with 0.01 mg of sensitivity. The powder is then compacted into 5-mm diameter tablets to ensure uniformity and structural integrity. The tablets are placed in a basket inside the vessel to maximize their exposure to SC-CO2. CO2 is introduced gradually using a high-precision pump (SC-1000, SUPEREX), with the pressure increased in 0.05 MPa increments to maintain stability. The pressure is monitored and held within ± 0.01 MPa. Temperature is controlled within ± 0.1 K using a thermocouple, and the mixture is stirred at 250 rpm to ensure uniformity. […] The pressure and temperature indicators are checked to ensure stability. After equilibration, the vessel is carefully depressurized to ambient conditions to halt dissolution without losing the sample. The remaining tablets are then removed and cleaned of residual CO2. If needed, they are dried in a desiccator. The undissolved drug is weighed using a high-precision balance. The experiment is replicated at least three times to calculate the mean solubility and standard deviation. The following formula was used to calculate the mass of dissolved rizatriptan:1
Include the molecular weights of rizatriptan ([…]) and CO2 (44.01 g/mol) in the mole fraction calculations.2 3 4 5
The measurements were conducted at four isotherms (308.2 K, 318.2 K, 328.2 K, and 338.2 K) and […] pressure points (12, 15, 18, 21, 24, 27, 30 MPa). Table 3 documents the experimental conditions, including temperature, pressure, SC-CO2 density, mole fraction, standard deviation, and solubility in grams per liter.

CN(C)CCc1c[nH]c2ccc(Cn3cncn3)cc12 [Rizatriptan, Rizatriptan benzoate]
bioavailability [1]: 40–45% | mole fraction in SC-CO2 ([2]; 308.2 K, 12 MPa): 0.09 × 10^−4 | mole fraction in SC-CO2 ([2]; 308.2 K, 30 MPa): 0.286 × 10^−4 | mole fraction in SC-CO2 ([2]; 328.2 K, 12 MPa): 0.45 × 10^−5 | mole fraction in SC-CO2 ([2]; 328.2 K, 30 MPa): 3.80 × 10^−5 | mole fraction in SC-CO2 ([2]; 338.2 K, 12 MPa): 0.024 × 10^−4 | mole fraction in SC-CO2 ([2]; 338.2 K, 30 MPa): 0.419 × 10^−4 | mole fraction y in SC-CO2 ([2]; 338.2 K, 30 MPa): 4.19 × 10^−5 | Experimental mole fraction (y) in supercritical carbon dioxide, y × 10^4 ([2]; T 308.0 K (text 308.2 K), P 12 MPa, ρCO2 768.52 kg/m^3): 0.090 × 10^4 | Experimental mole fraction (y) in supercritical carbon dioxide, y × 10^4 ([2]; T 308.0 K (text 308.2 K), P 15 MPa, ρCO2 816.10 kg/m^3): 0.121 × 10^4 | Experimental mole fraction (y) in supercritical carbon dioxide, y × 10^4 ([2]; T 308.0 K (text 308.2 K), P 18 MPa, ρCO2 816.10 kg/m^3): 0.141 × 10^4 | Experimental mole fraction (y) in supercritical carbon dioxide, y × 10^4 ([2]; T 308.0 K (text 308.2 K), P 21 MPa, ρCO2 874.55 kg/m^3): 0.177 × 10^4 | Experimental mole fraction (y) in supercritical carbon dioxide, y × 10^4 ([2]; T 308.0 K (text 308.2 K), P 24 MPa, ρCO2 895.66 kg/m^3): 0.227 × 10^4 | Experimental mole fraction (y) in supercritical carbon dioxide, y × 10^4 ([2]; T 308.0 K (text 308.2 K), P 27 MPa, ρCO2 913.70 kg/m^3): 0.258 × 10^4 | Experimental mole fraction (y) in supercritical carbon dioxide, y × 10^4 ([2]; T 308.0 K (text 308.2 K), P 30 MPa, ρCO2 929.85 kg/m^3): 0.286 × 10^4 | Experimental mole fraction (y) in supercritical carbon dioxide, y × 10^4 ([2]; T 318.0 K (text 318.2 K), P 12 MPa, ρCO2 659.80 kg/m^3): 0.069 × 10^4 | Experimental mole fraction (y) in supercritical carbon dioxide, y × 10^4 ([2]; T 318.0 K (text 318.2 K), P 15 MPa, ρCO2 743.83 kg/m^3): 0.126 × 10^4 | Experimental mole fraction (y) in supercritical carbon dioxide, y × 10^4 ([2]; T 318.0 K (text 318.2 K), P 18 MPa, ρCO2 790.29 kg/m^3): 0.162 × 10^4 | Experimental mole fraction (y) in supercritical carbon dioxide, y × 10^4 ([2]; T 318.0 K (text 318.2 K), P 21 MPa, ρCO2 823.80 kg/m^3): 0.215 × 10^4 | Experimental mole fraction (y) in supercritical carbon dioxide, y × 10^4 ([2]; T 318.0 K (text 318.2 K), P 24 MPa, ρCO2 850.15 kg/m^3): 0.281 × 10^4 | Experimental mole fraction (y) in supercritical carbon dioxide, y × 10^4 ([2]; T 318.0 K (text 318.2 K), P 27 MPa, ρCO2 872.14 kg/m^3): 0.322 × 10^4 | Experimental mole fraction (y) in supercritical carbon dioxide, y × 10^4 ([2]; T 318.0 K (text 318.2 K), P 30 MPa, ρCO2 890.90 kg/m^3): 0.339 × 10^4 | Experimental mole fraction (y) in supercritical carbon dioxide, y × 10^4 ([2]; T 328.0 K (text 328.2 K), P 12 MPa, ρCO2 506.75 kg/m^3): 0.045 × 10^4 | Experimental mole fraction (y) in supercritical carbon dioxide, y × 10^4 ([2]; T 328.0 K (text 328.2 K), P 15 MPa, ρCO2 654.94 kg/m^3): 0.099 × 10^4 | Experimental mole fraction (y) in supercritical carbon dioxide, y × 10^4 ([2]; T 328.0 K (text 328.2 K), P 18 MPa, ρCO2 724.13 kg/m^3): 0.176 × 10^4 | Experimental mole fraction (y) in supercritical carbon dioxide, y × 10^4 ([2]; T 328.0 K (text 328.2 K), P 21 MPa, ρCO2 768.74 kg/m^3): 0.241 × 10^4 | Experimental mole fraction (y) in supercritical carbon dioxide, y × 10^4 ([2]; T 328.0 K (text 328.2 K), P 24 MPa, ρCO2 801.92 kg/m^3): 0.302 × 10^4 | Experimental mole fraction (y) in supercritical carbon dioxide, y × 10^4 ([2]; T 328.0 K (text 328.2 K), P 27 MPa, ρCO2 828.51 kg/m^3): 0.353 × 10^4 | Experimental mole fraction (y) in supercritical carbon dioxide, y × 10^4 ([2]; T 328.0 K (text 328.2 K), P 30 MPa, ρCO2 850.83 kg/m^3): 0.380 × 10^4 | Experimental mole fraction (y) in supercritical carbon dioxide, y × 10^4 ([2]; T 338.0 K (text 338.2 K), P 12 MPa, ρCO2 384.17 kg/m^3): 0.024 × 10^4 | Experimental mole fraction (y) in supercritical carbon dioxide, y × 10^4 ([2]; T 338.0 K (text 338.2 K), P 15 MPa, ρCO2 555.33 kg/m^3): 0.136 × 10^4 | Experimental mole fraction (y) in supercritical carbon dioxide, y × 10^4 ([2]; T 338.0 K (text 338.2 K), P 18 MPa, ρCO2 651.28 kg/m^3): 0.213 × 10^4 | Experimental mole fraction (y) in supercritical carbon dioxide, y × 10^4 ([2]; T 338.0 K (text 338.2 K), P 21 MPa, ρCO2 709.59 kg/m^3): 0.279 × 10^4 | Experimental mole fraction (y) in supercritical carbon dioxide, y × 10^4 ([2]; T 338.0 K (text 338.2 K), P 24 MPa, ρCO2 751.27 kg/m^3): 0.334 × 10^4 | Experimental mole fraction (y) in supercritical carbon dioxide, y × 10^4 ([2]; T 338.0 K (text 338.2 K), P 27 MPa, ρCO2 783.19 kg/m^3): 0.388 × 10^4 | Experimental mole fraction (y) in supercritical carbon dioxide, y × 10^4 ([2]; T 338.0 K (text 338.2 K), P 30 MPa, ρCO2 809.68 kg/m^3): 0.419 × 10^4 | crossover pressure ([2]; solubility isotherms 308.2–338.2 K in SC-CO2): approximately 15 MPa
